Laboratory results: ChEMBL document CHEMBL5303573, “Mapping human microbiome drug metabolism by gut bacteria and their genes” (Nature, 2019)

Columns and labels:
[1] = The drug is tested on Bifidobacterium breve strain: DSM20213 for biotransformation. The drug concentrations were measured before and after a 12-h incubation by liquid-chromatography-coupled mass spectrometry (LC–MS); conditions: 2 µM
[2] = The drug is tested on Bacteroides coprophilus strain: DSM18228 for biotransformation. The drug concentrations were measured before and after a 12-h incubation by liquid-chromatography-coupled mass spectrometry (LC–MS); conditions: 2 µM
[3] = The drug is tested on Bacteroides fragilis strain: ATCC43859 for biotransformation. The drug concentrations were measured before and after a 12-h incubation by liquid-chromatography-coupled mass spectrometry (LC–MS); conditions: 2 µM
[4] = The drug is tested on Bacteroides ovatus strain: ATCC8483 for biotransformation. The drug concentrations were measured before and after a 12-h incubation by liquid-chromatography-coupled mass spectrometry (LC–MS); conditions: 2 µM
[5] = The drug is tested on Bacteroides uniformis strain: ATCC8492 for biotransformation. The drug concentrations were measured before and after a 12-h incubation by liquid-chromatography-coupled mass spectrometry (LC–MS); conditions: 2 µM
[6] = The drug is tested on Blautia hansenii strain: DSM20583 for biotransformation. The drug concentrations were measured before and after a 12-h incubation by liquid-chromatography-coupled mass spectrometry (LC–MS); conditions: 2 µM
[7] = The drug is tested on Clostridium sp. strain: fecal isolate for biotransformation. The drug concentrations were measured before and after a 12-h incubation by liquid-chromatography-coupled mass spectrometry (LC–MS); conditions: 2 µM
[8] = The drug is tested on Clostridium sporogenes strain: ATCC15579 for biotransformation. The drug concentrations were measured before and after a 12-h incubation by liquid-chromatography-coupled mass spectrometry (LC–MS); conditions: 2 µM
[9] = The drug is tested on Enterococcus faecalis strain: V583 for biotransformation. The drug concentrations were measured before and after a 12-h incubation by liquid-chromatography-coupled mass spectrometry (LC–MS); conditions: 2 µM
[10] = The drug is tested on Eubacterium hallii strain: DSM3353 for biotransformation. The drug concentrations were measured before and after a 12-h incubation by liquid-chromatography-coupled mass spectrometry (LC–MS); conditions: anaerobutyricum hallii, 2 µM
[11] = The drug is tested on Eubacterium ventriosum strain: ATCC27560 for biotransformation. The drug concentrations were measured before and after a 12-h incubation by liquid-chromatography-coupled mass spectrometry (LC–MS); assay type: ADME; set-up: dose 2 uM, timepoint 0 vs 12 hours; conditions: 2 µM
[12] = The drug is tested on Subdoligranulum variabile strain: DSM15176 for biotransformation. The drug concentrations were measured before and after a 12-h incubation by liquid-chromatography-coupled mass spectrometry (LC–MS); conditions: 2 µM
[13] = The drug is tested on Escherichia coli strain: BW25113 for biotransformation. The drug concentrations were measured before and after a 12-h incubation by liquid-chromatography-coupled mass spectrometry (LC–MS); conditions: 2 µM
[14] = bifidobacterium adolescentis, 12 h, 2 µM
Description: The drug is tested on Bifidobacterium adolescentis strain: ATCC 15703 for biotransformation. The drug concentrations were measured before and after a 12-h incubation by liquid-chromatography-coupled mass spectrometry (LC–MS)

[15] = bacteroides fragilis, 12 h, 2 µM
Description: The drug is tested on Bacteroides fragilis strain: 3397 (T10) for biotransformation. The drug concentrations were measured before and after a 12-h incubation by liquid-chromatography-coupled mass spectrometry (LC–MS)

[16] = limosilactobacillus reuteri cf48-3a, 12 h, 2 µM
Description: The drug is tested on Lactobacillus reuteri CF48-3A strain: BEI HM-102 for biotransformation. The drug concentrations were measured before and after a 12-h incubation by liquid-chromatography-coupled mass spectrometry (LC–MS)

[17] = roseburia intestinalis, 12 h, 2 µM
Description: The drug is tested on Roseburia intestinalis strain: L1-82 for biotransformation. The drug concentrations were measured before and after a 12-h incubation by liquid-chromatography-coupled mass spectrometry (LC–MS)

[18] = segatella copri, 12 h, 2 µM
Description: The drug is tested on Prevotella copri strain: DSM18205 for biotransformation. The drug concentrations were measured before and after a 12-h incubation by liquid-chromatography-coupled mass spectrometry (LC–MS)

[19] = The drug is tested on Odoribacter splanchnicus strain: fecal isolate for biotransformation. The drug concentrations were measured before and after a 12-h incubation by liquid-chromatography-coupled mass spectrometry (LC–MS); conditions: 2 µM
[20] = akkermansia muciniphila, 12 h, 2 µM
Description: The drug is tested on Akkermansia muciniphila strain: ATCC BAA-835 for biotransformation. The drug concentrations were measured before and after a 12-h incubation by liquid-chromatography-coupled mass spectrometry (LC–MS)

Row | SMILES | Bacterial Biotransformation [1] | Bacterial Biotransformation [2] | Bacterial Biotransformation [3] | Bacterial Biotransformation [4] | Bacterial Biotransformation [5] | Bacterial Biotransformation [6] | Bacterial Biotransformation [7] | Bacterial Biotransformation [8] | Bacterial Biotransformation [9] | Bacterial Biotransformation [10] | Bacterial Biotransformation [11] | Bacterial Biotransformation [12] | Bacterial Biotransformation [13] | Bacterial Biotransformation [14] | Bacterial Biotransformation [15] | Bacterial Biotransformation [16] | Bacterial Biotransformation [17] | Bacterial Biotransformation [18] | Bacterial Biotransformation [19] | Bacterial Biotransformation [20]
1 | Br.COc1ccc2c(c1)[C@]13CCCC[C@@H]1[C@H](C2)N(C)CC3.O [DEXTROMETHORPHAN HYDROBROMIDE] | Compound NOT metabolized | Compound NOT metabolized | Compound NOT metabolized | Compound NOT metabolized | Compound NOT metabolized | Compound NOT metabolized | Compound NOT metabolized | Compound NOT metabolized | Compound NOT metabolized | Compound NOT metabolized | Compound NOT metabolized | Compound NOT metabolized | Compound NOT metabolized | Compound NOT metabolized | Compound NOT metabolized | Compound NOT metabolized | Compound NOT metabolized | – | – | –
2 | CCCN1C[C@H](CSC)C[C@@H]2c3cccc4[nH]cc(c34)C[C@H]21.CS(=O)(=O)O [PERGOLIDE MESYLATE] | Compound NOT metabolized | Compound NOT metabolized | Compound NOT metabolized | Compound NOT metabolized | Compound NOT metabolized | Compound NOT metabolized | Compound NOT metabolized | Compound NOT metabolized | Compound NOT metabolized | Compound NOT metabolized | Compound NOT metabolized | Compound NOT metabolized | Compound NOT metabolized | Compound NOT metabolized | Compound NOT metabolized | Compound NOT metabolized | Compound NOT metabolized | Compound NOT metabolized | – | –
3 | COCCCC/C(=N\OCCN)c1ccc(C(F)(F)F)cc1.O=C(O)/C=C\C(=O)O [FLUVOXAMINE MALEATE] | Compound NOT metabolized | Compound metabolized | Compound NOT metabolized | Compound metabolized | Compound NOT metabolized | Compound metabolized | Compound metabolized | – | Compound NOT metabolized | Compound NOT metabolized | Compound NOT metabolized | Compound NOT metabolized | Compound NOT metabolized | Compound NOT metabolized | Compound metabolized | Compound NOT metabolized | Compound NOT metabolized | – | – | –
4 | COc1cc2nc(N3CCN(C(=O)C4COc5ccccc5O4)CC3)nc(N)c2cc1OC.CS(=O)(=O)O (configuration not stated) [DOXAZOSIN MESYLATE] | Compound NOT metabolized | Compound NOT metabolized | Compound NOT metabolized | Compound NOT metabolized | Compound metabolized | Compound metabolized | Compound metabolized | – | Compound NOT metabolized | Compound NOT metabolized | Compound NOT metabolized | Compound NOT metabolized | Compound metabolized | Compound NOT metabolized | Compound NOT metabolized | – | Compound NOT metabolized | Compound metabolized | Compound NOT metabolized | Compound NOT metabolized
5 | CC(=O)O[C@]1(C(C)=O)CC[C@H]2[C@@H]3C=C(C)C4=CC(=O)CC[C@]4(C)[C@H]3CC[C@@]21C [MEGESTROL ACETATE] | Compound NOT metabolized | Compound NOT metabolized | Compound metabolized | Compound NOT metabolized | Compound metabolized | Compound metabolized | Compound metabolized | – | Compound NOT metabolized | Compound NOT metabolized | Compound NOT metabolized | Compound NOT metabolized | Compound metabolized | Compound metabolized | Compound metabolized | Compound NOT metabolized | Compound NOT metabolized | Compound NOT metabolized | Compound metabolized | –
6 | CN1CCN(C(=O)O[C@H]2c3nccnc3C(=O)N2c2ccc(Cl)cn2)CC1 [ESZOPICLONE] | Compound NOT metabolized | Compound NOT metabolized | Compound NOT metabolized | Compound NOT metabolized | Compound NOT metabolized | Compound NOT metabolized | Compound metabolized | Compound NOT metabolized | Compound NOT metabolized | Compound metabolized | Compound NOT metabolized | Compound NOT metabolized | Compound NOT metabolized | – | – | Compound NOT metabolized | Compound NOT metabolized | – | Compound metabolized | –
7 | C#C[C@]1(OC(C)=O)CC[C@H]2[C@@H]3CCC4=CC(=O)CC[C@@H]4[C@H]3CC[C@@]21C [NORETHINDRONE ACETATE] | Compound NOT metabolized | Compound metabolized | Compound metabolized | Compound metabolized | Compound metabolized | Compound metabolized | Compound metabolized | Compound metabolized | Compound NOT metabolized | Compound metabolized | Compound metabolized | Compound NOT metabolized | Compound metabolized | Compound NOT metabolized | Compound metabolized | Compound NOT metabolized | – | Compound metabolized | Compound metabolized | Compound metabolized
